Measured values taken from patent US6184207A, “Inhibitors of peptide binding to MHC class II proteins” (Zeneca Limited, priority 1996, dated 2001).

What was measured:
HLA-DR4Dw4 = target: T1, HLA-DR4Dw4 (Homo sapiens, UniProt P01903+P01911, A100K/A169T/F76Y/I96L/K127E/L162R/M171V/N62H/P40V/Q125Y/R42H/S133A/S149N/S66Y/V115G/V209L/W38E); assay: Test A: Purified HLA-DR peptide in vitro binding assay; conditions: inhibition of biotin-FHA 307-320 binding to purified HLA-DR4Dw4, 48 hours
T1 construct: a cDNA encoding the β chain is cloned into the transfer vector pAcUW1; made in house; host or cells: Sf21 insect cells, double-recombinant baculovirus
Text: The utility of the peptides of the formula I, or a pharmaceutically acceptable salt thereof, may be assessed using a variety of standard tests and clinical studies, including those described in International Patent Application, Publication Nos. WO92/02543, WO93/05011 and WO95/07707 (or modifications thereof) and those described below. The peptides of formula I show significant activity in one or more of such tests or studies. Test A: Purified HLA-DR peptide in vitro binding assay. […]. […] The reaction is stopped by adding 2M sulphuric acid (10 μl per well) and the absorbance read at 450 nm to quantify the amount of peptide bound. The inhibitory activity of peptides is obtained by plotting absorbance against concentration. […]
A cDNA encoding the sequence of the α polypeptide is cloned into the transfer vector pacYM1 [Matsuura, Y; Possce, RD; Overton, HA & Bishop, DHL (1987) J. Gen. […] The molecular genetic techniques used to construct the recombinant vectors are likewise readily available in the literature and are most fully described by Sambrook, J; Fritsch, EF & Maniatis T, (1989) [Molecular Cloning. […]

BALB/C mice = assay: Test C: Peptide stimulated DTH (delayed type hypersensitivity) in BALB/C mice; assay type: in vivo; conditions: ovalbumin DTH footpad swelling, 3-day osmotic mini-pumps
Description: Test C: Peptide stimulated DTH (delayed type hypersensitivity) in BALB/C mice. […] Balb/c female mice (18-20 g), 5 per group, were immunised sub-cutaneously on the flank with 0.1 ml of an emulsion of ovalbumin (Sigma) (2 mg/ml in saline) mixed 1:1 (v/v) with complete Freunds adjuvant (Sigma). Seven days later footpad thickness was detemined using a dual caliper micrometer followed by a challenge in one hind footpad with a 30 μl sub-plantar injection of 1% heat-aggregated ovalbumin protein in saline. Twenty-four hours after antigen challenge, footpads were measured and the DTH response calculated as the percentage increase in footpad thickness in the injected footpad compared to contralateral control. Inhibitors were adminstered by 3-day osmotic mini-pumps (Alzet) implanted 24 hours prior to antigen challenge at doses ranging from 10 mg/kg/day to 0.1 μg/kg/day. The degree of inhibition was calculated by substracting the value for swelling of inhibitor treated footpads from that of the vehicle dosed controls, dividing by the control value and multiplying by 100%.

With `C[C@H](NC(=O)CN1CCCC(NC(=O)[C@@H](NC(=O)[C@H](C)NC(=O)[C@H](C)NC(=O)[C@H](C)NC(=O)[C@H](CCCNC(=N)N)NC(=O)CCCCc2ccccc2)[C@@H](C)O)C1=O)C(=O)Nc1ccc(CC(N)=O)cc1` (stereo partly drawn) [Example 1, Phv-Arg-Ala-Ala-Ala-Thr-II-Ala-Papa-NH2] the “concentration showing significant binding to HLA-DR4Dw4 in Test A” value (HLA-DR4Dw4) was ≤ 0.1 µM and the “dose at which active in Test C” value (BALB/C mice) was < 0.1 mg/kg/day.
